The record followed here is US11021475B2, “Amide-substituted heterocyclic compounds useful as modulators of IL-12, IL-23 and/or IFN alpha responses” (Bristol-Myers Squibb Company, priority 2012, dated 2021).

Like-named read-outs stand apart in the source and are kept apart here.

In test [1] the test system is IL-23 stimulated Kit225 T cells (STAT-dependent luciferase reporter). Description: Kit225 T cell assay, IL-23-stimulated STAT-dependent luciferase reporter. It is filed as cell-based, human. The note with it: 20 ng/mL human recombinant IL-23, 5-6 hours, read-out: IL-23 Kit225 Reporter (IC50). An outline of the steps:
(§1)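 Kit225 T cells carrying a stable STAT-dependent luciferase reporter, stimulated 5-6 h with 20 ng/mL human IL-23 or 200 U/mL human IFNα. Luminescence read out; % inhibition derived against unstimulated (100%) and no-inhibitor (0%) controls.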
On the technique in general: In a reporter assay the amount or activity of a reporter protein is the signal.

Test [2] has as its system IFNα stimulated Kit225 T cells (STAT-dependent luciferase reporter). Description: Kit225 T cell assay, IFNα-stimulated STAT-dependent luciferase reporter. Particulars: 200 U/mL human recombinant IFNα, 5-6 hours, read-out: IFNα Kit225 Reporter (IC50). In kind it is cell-based, human. An outline of the steps: as §1

In general, IC50 refers to the concentration that gives 50% inhibition. `CNC(=O)c1nnc(Nc2cc(C)n(C)n2)cc1Nc1cccc(-c2ncn(C)n2)c1OC` [Example 60]: the figures for the IC50 in test [1] and in test [2] were 10 nM and 3.38 nM, respectively.

Regarding `CNC(=O)c1nnc(Nc2cc(C)n(C)n2)cc1Nc1cccc(-c2nc(C)cs2)c1OC` [Example 100], the IC50 in test [1] stood at 40 nM; in test [2] it was 50 nM.

For `CNC(=O)c1nnc(Nc2cc(C)nc(C)n2)cc1Nc1cccc(-c2cscn2)c1OC` [Example 130], the IC50 in test [1] amounted to 9.7 nM; in test [2] it was 10 nM.

For the compound `CCc1cc(Nc2cc(Nc3cccc(-c4ncn(C)n4)c3OC)c(C(=O)NC)nn2)nc(C)n1` [Example 115], the results for the 50% inhibitory concentration (IC50) in test [1] and in test [2] were 2.96 nM and 1.6 nM, respectively.

Consider `CNC(=O)c1nnc(Nc2cc(C)c(F)cn2)cc1Nc1cccc(-c2ncnn2C)c1OC` [Example 180], for which the IC50 in test [1] stood at 60 nM; in test [2], 20 nM.

Consider `CNC(=O)c1nnc(NC(=O)C2CC2)cc1Nc1cccc(-c2nnnn2C)c1OC` [Example 143], for which the results for the IC50 in test [1] and in test [2] were 40 nM and 140 nM, respectively.

As for `CNC(=O)c1nnc(Nc2cc(C)c(F)cn2)cc1Nc1cccc(-c2nnc(C)o2)c1OC` [Example 150], the IC50 in test [1] is 20 nM; in test [2] it was 10 nM.

Regarding `CNC(=O)c1nnc(Nc2ccc(CO)cn2)cc1Nc1ccccc1S(C)(=O)=O` [Example 49], the IC50 amounted to 560 nM in test [1] and 220 nM in test [2].

Turning to `CNC(=O)c1nnc(Nc2cc(C)c(F)cn2)cc1Nc1cccc(-c2ncn(C)n2)c1OC` [Example 56], the IC50 in test [1] worked out at 7.01 nM; in test [2], 5.45 nM.

`CNC(=O)c1nnc(Nc2ccccn2)cc1Nc1cccc(-c2cscn2)c1OC` [Example 132]: the IC50 in test [1] and in test [2] was 20 nM each time.

For the compound `Cc1cc(Nc2cc(Nc3ccccc3S(C)(=O)=O)c(C(N)=O)nn2)ncc1F` [Example 18], the IC50 in test [1] came to 100 nM; in test [2] it was 30 nM.

Turning to `CNC(=O)c1nnc(Nc2cc(N3CCN(CCO)CC3)nc(C)n2)cc1Nc1cccc(-c2ncn(C)n2)c1OC` [Example 99], the IC50 in test [1] worked out at 60 nM; in test [2] it was 20 nM.

As to `[2H]C([2H])([2H])NC(=O)c1nnc(Nc2ccccn2)cc1Nc1cccc(C(=O)NCCOC)c1OC` [Example 164], the results for the 50% inhibitory concentration (IC50) in test [1] (KIT225) and in test [2] (KIT225) were 300 nM and 170 nM, respectively.

As for `CNC(=O)c1nnc(Nc2cc(COC)nc(C)n2)cc1Nc1ccccc1S(C)(=O)=O` [Example 40], the IC50 in test [1] was found to be 80 nM; in test [2], 120 nM.

On to `CNC(=O)c1nnc(Nc2cc(C)ncn2)cc1Nc1cccc(-c2ncccn2)c1OC` [Example 119], for which the IC50 in test [1] turned out to be 10 nM; in test [2] it was 7.37 nM.

Consider `CNC(=O)c1nnc(Nc2ccccn2)cc1Nc1cccc(-c2nnc(C)o2)c1SC` [Example 203], for which the IC50 in test [1] came to 310 nM; in test [2] it was 110 nM.

In the case of `CNC(=O)c1nnc(Nc2cc(COC)ccn2)cc1Nc1cccc(-c2ncn(C)n2)c1OC` [Example 135], the IC50 in test [1] was found to be 3.83 nM; in test [2] it was 1.4 nM.

Take `CNC(=O)c1nnc(Nc2ccccn2)cc1Nc1ccccc1S(C)(=O)=O` [Example 31]: the values for the IC50 in test [1] and in test [2] were 80 nM and 90 nM, respectively.

In the case of `CNC(=O)c1nnc(NC(=O)C2CC2)cc1Nc1ccccc1S(C)(=O)=O` [Example 12], the concentration for half-maximal inhibition (IC50) in test [1] was determined as 230 nM; in test [2], 100 nM.

Regarding `CNC(=O)c1nnc(Nc2ccncn2)cc1Nc1cccc(-c2ncccn2)c1OC` [Example 118], the IC50 in test [1] was 30 nM; in test [2] it was 20 nM.

For `CNC(=O)c1nnc(NC(=O)C2CC2)cc1Nc1cccc(-c2ccn(C)n2)c1OC` [Example 54], the half-inhibitory concentration (IC50) in test [1] came to 40 nM; in test [2] it was 20 nM.

As to `CNC(=O)c1nnc(Nc2ccnc(C)n2)cc1Nc1ccccc1S(C)(=O)=O` [Example 39], the figures for the IC50 in test [1] and in test [2] were 340 nM and 130 nM, respectively.

For the compound `CNC(=O)c1nnc(Nc2cc(C#N)ccn2)cc1Nc1ccccc1S(C)(=O)=O` [Example 11], the results for the IC50 in test [1] and in test [2] were 100 nM and 60 nM, respectively.

For the compound `CNC(=O)c1nnc(Nc2cc(C)nc(C)n2)cc1Nc1cccc(-c2nc(C)cs2)c1OC` [Example 97], the 50% inhibitory concentration (IC50) came to 10 nM in test [1] and 20 nM in test [2].

Take `CNC(=O)c1nnc(Nc2cc(OC(C)C)nc(C)n2)cc1Nc1cccc(-c2ncn(C)n2)c1OC` [Example 62]: the IC50 in test [1] stood at 30 nM; in test [2] it was 20 nM.

Take `CNC(=O)c1nnc(Nc2cc(OC)nc(C)n2)cc1Nc1ccccc1S(C)(=O)=O` [Example 43]: the values for the IC50 in test [1] and in test [2] were 460 nM and 70 nM, respectively.

In the case of `[2H]C([2H])([2H])NC(=O)c1nnc(Nc2cc(C)c(F)cn2)cc1Nc1ccccc1S(C)(=O)=O` [Example 1], the IC50 worked out at 30 nM in test [1] (KIT225) and 20 nM in test [2] (KIT225).

With `CNC(=O)c1nnc(Nc2cc(C)nc(C)n2)cc1Nc1cccc(-c2cnn(C)n2)c1OC` [Example 137], the IC50 came to 10 nM in test [1] and 6.92 nM in test [2].

Regarding `CNC(=O)c1nnc(Nc2cc(C)c(F)cn2)cc1Nc1cccc(-c2cnn(C)c2)c1OC` [Example 59], the IC50 in test [1] and in test [2] was 20 nM in each case.

In the case of `CNC(=O)c1nnc(Nc2ccc(C)nn2)cc1Nc1ccccc1S(C)(=O)=O` [Example 19], the IC50 in test [1] and in test [2] was 90 nM each time.

Take `CNC(=O)c1nnc(NC(=O)C2CC2)cc1Nc1cccc(-c2ncn(CCF)n2)c1OC` [Example 175]: the IC50 in test [1] was 20 nM; in test [2] it was 10 nM.

On to `CNC(=O)c1nnc(Nc2cc(C)ccn2)cc1Nc1ccccc1S(C)(=O)=O` [Example 23], for which the values for the IC50 in test [1] and in test [2] were 100 nM and 40 nM, respectively.

Turning to `CNC(=O)c1nnc(Nc2cc(C)n(C)n2)cc1Nc1cccc(-c2ccn(C)n2)c1OC` [Example 93], the concentration for half-maximal inhibition (IC50) amounted to 50 nM in test [1] and 10 nM in test [2].

Consider `CNC(=O)c1nnc(Nc2cc(C)nc(C)n2)cc1Nc1cccc(-c2ncccn2)c1OC` [Example 121], for which the IC50 in test [1] is 2.64 nM; in test [2], 2.33 nM.

For `[2H]C([2H])([2H])NC(=O)c1nnc(Nc2ccccn2)cc1Nc1cccc(-c2nnc[nH]2)c1OC` [Example 172], the IC50 in test [1] (KIT225) worked out at 5.45 nM; in test [2] (KIT225), 6.19 nM.

Turning to `CNC(=O)c1nnc(Nc2ccccn2)cc1Nc1cccc(-c2nnc[nH]2)c1SC` [Example 204, N-methyl-4-((2-(methylthio)-3-(4H-1,2,4-triazol-3-yl)phenyl)amino)-6-(pyridin-2-ylamino)pyridazine-3-carboxamide], the IC50 in test [1] (KIT225) was 70 nM; in test [2] (KIT225) it was 20 nM.

In the case of `CNC(=O)c1nnc(Nc2cc(C)nc(C)n2)cc1Nc1cccc(-c2cnn(C)c2)c1OC` [Example 57], the values for the IC50 in test [1] and in test [2] were 6.01 nM and 6.48 nM, respectively.

`CS(=O)(=O)c1ccccc1Nc1cc(Nc2ccccn2)nnc1C(N)=O` [Example 27]: the IC50 came out at 10 nM in test [1] and 20 nM in test [2].

For `CNC(=O)c1nnc(NC(=O)C2CC2F)cc1Nc1ccccc1S(C)(=O)=O` (stereo not shown) [Example 28], the results for the IC50 in test [1] and in test [2] were 420 nM and 610 nM, respectively.

`CNC(=O)c1nnc(Nc2ccccn2)cc1Nc1cccc(-c2ncccn2)c1OC` [Example 91]: the values for the IC50 in test [1] and in test [2] were 20 nM and 3.62 nM, respectively.

For `CNC(=O)c1nnc(Nc2ccc(F)cn2)cc1Nc1cccc(-c2ncccn2)c1OC` [Example 71], the IC50 in test [1] was 10 nM; in test [2], 5.99 nM.
